Test results reported in publication PMC12393501, “Recruitment of Mre11 to recombination sites during meiosis” (Research Square, 2025).
Ends that are not written are not given here.

Assays:
[1] = test system: pUC19 plasmid DNA; assay: In vitro condensation assay, Mre11; details: for Condensate formation: in the presence of plasmid DNA (pUC19), pH 7.5, 120 mM NaCl, 30°C, fluorescence microscopy
Procedure: (§1) Proteins were diluted to a 10× stock of their appropriate working concentrations in their respective storage buffers. Reactions were performed in a buffer containing 25 mM HEPES-HCl (pH 7.5), 2 mM DTT, 1 mg/ml BSA, 5% glycerol, 5 mM MgCl2, 5% PEG-3350, and NaCl. Considering the salt contributed by the protein dilution buffer, final concentration of NaCl in a reaction was adjusted to 120 mM. Unless specified otherwise, all reactions contained 400 nM ^Alexa488Mre11 or 100 nM ^eGFPMRX. A typical 20 μL binding reaction contained 2 μL protein of 10× stock of indicated concentration, 10 μL of 2× reaction buffer, and 150 ng of supercoiled pUC19 (5.7 nM). Typical reactions were assembled at 30°C for 30 mins with gentle mixing every 5 mins, unless mentioned otherwise. 5 μL was dropped onto a microscope slide and covered with a coverslip. All images were captured on a Zeiss Axio Observer with a 100×/1.4 NA oil immersion objective except for images provided in Figure 4G which were captured on Leica Stellaris DMI 8 confocal microscope with a 63x/1.2 NA water immersion objective. Images were analyzed with ImageJ using a custom-made script. In brief, 129.24 × 129.24-μm (2048 × 2048-pixel) images were thresholded to mean intensity of the background plus three times the standard deviation of the background. Masked foci were counted and the intensity inside the focus mask was integrated. Data points represent averages of at least 8–10 images per sample. Data were analyzed using Graphpad Prism 10.4.0.

[2] = test system: pUC19 plasmid; assay: Gel shift assay DNA binding; details: 1 nM pUC19, pH 7.5, 100 mM NaCl, 5 mM EDTA, 30°C for 30 mins
Procedure: Proteins were diluted to their appropriate working concentrations in their respective storage buffers. […] Reactions were assembled at 30°C for 30 mins and resolved in a 1% agarose (SeaKem LE Agarose, Lonza) at 60 V for 120 mins at 4°C. Gels were stained with SYBR Gold Nucleic Acid Gel Stain (S11497, Invitrogen) for 40 mins and visualized with Amersham Typhoon biomolecular imager (Cytiva).

[3] = test system: Mer2; assay: Colocalization of Mre11 with Mer2 condensates in vitro; format: binding, Saccharomyces cerevisiae
Procedure: as §1, with “Reactions were performed in a buffer containing 25 mM HEPES-HCl (pH 7.5), 2 mM DTT, 1 mg/ml BSA, 5% glycerol, 5 mM MgCl2, 5% PEG-3350, and NaCl. Considering the salt contributed by the protein dilution buffer, final concentration of NaCl in a reaction was adjusted to 120 mM.” left out

[4] = test system: pUC19 plasmid DNA; assay: In vitro condensation assay, MRX complex
Procedure: as §1

[5] = test system: mre11-ΔIDR mutants; assay: MMS and CPT sensitivity assay, mre11-ΔIDR; format: cell-based, Saccharomyces cerevisiae; details: ten-fold serial dilutions on YPD plates, two days at 30°C
Procedure: (§2) Following standard protocols, strains were patched on YPG plates, mated and streaked on YPD plates, and selected diploid colonies grown in liquid YPD at 30°C, 250 rpm, overnight. For meiotic synchronization, diploid cultures grown overnight in YPD were transferred to YPA (1% yeast extract, 2% peptone, 1% potassium acetate) at OD600 0.2 and grown for 12–14 hours at 30°C, 250 rpm. Once the cultures reached OD600 between 1.2–1.6, cells were washed once with prewarmed sterile water and immediately transferred to sporulation medium supplemented with amino acids (320 μL amino acid complementation media for 100 mL of sporulation media (SPM)) and were kept shaking at 30°C, 250 rpm during the entire meiotic time-course. For MMS and CPT (Sigma) sensitivity assays, serial dilutions of overnight cultures were spotted on freshly prepared YPD-MMS or YPD-CPT plates containing indicated percentage of MMS or CPT, respectively. Plates were grown for two days at 30°C. For immunofluorescence of vegetatively growing cells, overnight cultures were refreshed by diluting to OD600 0.2 and grown for 3–4 hours to reach OD600 1.2–1.4 before subjecting to MMS or MMS followed by 5% 1,6-hexanediol treatment. For 5% 1,6-hexanediol treatment, cells were first converted to spheroplasts and then treated with 5% 1,6-hexanediol for 4–5 minutes. […]

[6] = test system: mre11-ΔC49 mutant; assay: MMS and CPT sensitivity assay, mre11-ΔC49; format: cell-based, Saccharomyces cerevisiae; details: ten-fold serial dilutions on YPD plates, two days at 30°C
Procedure: as §2

[7] = test system: vegetative yeast cells expressing myc-tagged Mre11; assay: Immunofluorescence of MMS-induced Mre11-myc foci, vegetative nuclear spreads; format: cell-based, Saccharomyces cerevisiae; details: 5% 1,6-hexanediol, 4–5 minutes, vegetative spheroplasts
Procedure: (§3) Following standard protocols, strains were patched on YPG plates, mated and streaked on YPD plates, and selected diploid colonies grown in liquid YPD at 30°C, 250 rpm, overnight. For meiotic synchronization, diploid cultures grown overnight in YPD were transferred to YPA (1% yeast extract, 2% peptone, 1% potassium acetate) at OD600 0.2 and grown for 12–14 hours at 30°C, 250 rpm. […]
(§4) Slides were blocked with 90% FBS, 1× PBS for 1 hour at room temperature in a humid chamber and then incubated with primary antibody (mouse mAb anti-myc, 1:200 (2276S, Cell Signaling Technology), rabbit anti-phospho H2A-S129, 1:200 (ab15083, abcam)) diluted in 3% BSA, 1× PBS in a humid chamber for 2 hours at 37°C or overnight at 4°C. Slides were washed three times with 1× PBS in a Coplin jar, were incubated with secondary antibody (goat anti-mouse IgG Alexa Fluor™ Plus 488, 1:200 (A32723, Invitrogen), donkey anti-rabbit IgG Alexa Fluor™ 546, 1:200 (A10040, Invitrogen) diluted in 3% BSA, 1× PBS in a humid chamber at 37°C for 1 hour. Slides were washed in the dark three times for 5 mins with 1× PBS, mounted with Vectashield containing DAPI (Vector Labs). Images were captured on a Zeiss Axio Observer with a 100×/1.4 NA oil immersion objective and were analyzed in ImageJ.

[8] = test system: meiotic yeast cells expressing myc-tagged Mre11; assay: Immunofluorescence of Mre11-myc foci, meiotic nuclear spreads; format: cell-based, Saccharomyces cerevisiae; details: 5% 1,6-hexanediol, brief exposure, 4 hours after transfer to SPM
Procedure: as §3, §4

[9] = test system: Mer2; assay: Yeast two-hybrid Mer2-Mre11 interaction; format: binding, Saccharomyces cerevisiae; details: SC-Leu-Ura-His + 25 mM 3-AT, 4–5 days at 30°C; at least four independent transformants
Procedure: Bait and prey plasmids were co-transformed into yWL365 using the standard ‘LiAc’-based transformation and plated on SC-Leu-Ura selective media. At least four independent transformants were tested for Mer2-Mre11 interaction by spotting a dilution series on SC-Leu- Ura-His + 25 mM 3-AT (3-amino-1,2,4-triazole) and growing for 4–5 days at 30°C.

Mre11: Alexa488-labeled or eGFP-tagged budding yeast Mre11 nuclease
Effect of crowding agents on condensation ([1]; 5% PEG-3350): promoted | Effect of divalent metal ions on condensation ([1]; divalent metal ions): enhanced | Condensate formation [1]: form large clusters visible by fluorescence microscopy | Concentration above which foci intensity increases steeply ([1]; protein titration, pUC19 DNA): above 200 nM | Species of reduced electrophoretic mobility at higher protein concentration [2]: formed complexes of reduced mobility at higher protein concentration | Colocalization with Mer2 ([3]; 200 nM Alexa594-Mer2 and eGFP-Mre11 assembled separately 10 minutes, then mixed 1:1 for 30 minutes): nearly absolute colocalization

MRX: Mre11-Rad50-Xrs2 complex with an eGFP tag at the N-terminus of Mre11
Effect of crowding agents on condensation ([4]; 5% PEG-3350): promoted | Role of the Mre11 C-terminal extremity in focus formation of MRX ([4]; eGFP-tagged MRX, ΔC49): required for efficient focus formation | Condensate formation ([4]; in the presence of plasmid DNA (pUC19), pH 7.5, 120 mM NaCl, 30°C, fluorescence microscopy): form large clusters visible by fluorescence microscopy

CC[C@@]1(O)C(=O)OCc2c1cc1n(c2=O)Cc2cc3ccccc3nc2-1 [CPT, camptothecin]
Sensitivity of mre11-ΔIDR mutants relative to wild type [5]: as resistant to MMS or CPT as wild-type cells | Sensitivity of mre11-ΔC49 mutant to treatment [6]: resistant

COS(C)(=O)=O [MMS, methylmethanesulfonate]
Sensitivity of mre11-ΔIDR mutants relative to wild type [5]: as resistant to MMS or CPT as wild-type cells | Sensitivity of mre11-ΔC49 mutant to treatment [6]: resistant

OCCCCCCO [1,6-hexanediol]
Effect on MMS-induced Mre11 foci [7]: readily dissolved MMS-induced foci, which instead coalesced into a few aggregates of high intensity | Effect on meiotic Mre11 foci [8]: disassembles these foci

C-terminus of Mre11: mScarlet-labelled Mre11-C49 (SYGLLNGRKTKTKTRPAASTKTASRRGKGRASRTPKTDILGSLLAKKRK; also: mScarlet tag; UniProt P32829 644-692, looked up, fragment)
Condensate formation of the C-terminus without Mer2 ([3]; 800 nM mScarlet-Mre11-C49, control lacking eGFP-Mer2): does not form condensates independently | Localization in the presence of Mer2 condensates ([3]; 800 nM mScarlet-Mre11-C49 and 200 nM eGFP-Mer2, 30 minutes): forms a halo-like structure around Mer2 condensates

B1: truncation of the terminal 15 amino acids of Mre11: Mre11 lacking the terminal 15 amino acids (pGAD-C1-Mre11-ΔC15) (protein)
chain: MDYPDPDTIRILITTDNHVGYNENDPITGDDSWKTFHEVMMLAKNNNVDMVVQSGDLFHVNKPSKKSLYQVLKTLRLCCMGDKPCELELLSDPSQVFHYDEFTNVNYEDPNFNISIPVFGISGNHDDASGDSLLCPMDILHATGLINHFGKVIESDKIKVVPLLFQKGSTKLALYGLAAVRDERLFRTFKDGGVTFEVPTMREGEWFNLMCVHQNHTGHTNTAFLPEQFLPDFLDMVIWGHEHECIPNLVHNPIKNFDVLQPGSSVATSLCEAEAQPKYVFILDIKYGEAPKMTPIPLETIRTFKMKSISLQDVPHLRPHDKDATSKYLIEQVEEMIRDANEETKQKLADDGEGDMVAELPKPLIRLRVDYSAPSNTQSPIDYQVENPRRFSNRFVGRVANGNNVVQFYKKRSPVTRSKKSGINGTSISDRDVEKLFSESGGELEVQTLVNDLLNKMQLSLLPEVGLNEAVKKFVDKDEKTALKEFISHEISNEVGILSTNEEFLRTDDAEEMKALIKQVKRANSVRPTPPKENDETNFAFNGNGLDSFRSSNREVRTGSPDITQSHVDNESRITHISQAESSKPTSKPKRVRTATKKKIPAFSDSTVISDAENELGDNNDAQDDVDIDENDIIMVSTDEEDASYGLLNGRKTKTKTRPAASTKTASRRGKGRASRT
modifications: left off: Gal4 activation domain (from the vector pGAD-C1), end not stated, kept
Interaction with Mer2 (yeast two-hybrid) [9]: abolished the interaction with Mer2

B2: Mre11^IDR: purified eGFP-tagged Mre11 IDR alone (protein, UniProt P32829 524-677, looked up, fragment)
chain: NSVRPTPPKENDETNFAFNGNGLDSFRSSNREVRTGSPDITQSHVDNESRITHISQAESSKPTSKPKRVRTATKKKIPAFSDSTVISDAENELGDNNDAQDDVDIDENDIIMVSTDEEDASYGLLNGRKTKTKTRPAASTKTASRRGKGRASRT
modifications: IDR eGFP tag
notes: purified eGFP-tagged Mre11 IDR alone
Condensate formation [1]: failed to form condensates | DNA binding compared to the WT or Mre11-ΔIDR [2]: reduced DNA binding
